According to PMC7604896, “Synthesis and Antiviral Properties of 1-Substituted 3-[ω-(4-Oxoquinazolin-4(3H)-yl)alkyl]uracil Derivatives” (Acta Naturae, 2020):
pEC50: −log10 of the molar value.

Assays:
[1] = Cytotoxicity, inhibition of cell growth in HEL cell culture; format: cell-based; details: human; HEL cells; concentration reducing cell growth by 50%
[2] = test system: VZV Oka (TK+); assay: microbe, parasite or virus in culture; format: cell-based, varicella zoster virus; details: Human alphaherpesvirus 3, HEL, read-out: Antiviral activity, EC50 VZV Oka (TK+)
Description: (§1) The compounds were evaluated against human cytomegalovirus (HCMV, strains AD-169 and Davis) and the varicella zoster virus (VZV, strains OKA and YS). The antiviral assays were based on the inhibition of virus-induced cytopathicity or plaque formation in human embryonic lung (HEL) fibroblasts. Confluent cell cultures in 96-well microplates were inoculated with 100 CCID50 of the virus (1 CCID50 being the virus dose to infect 50% of the cell culture) or 10 or 100 plaque-forming units (PFU) (for VZV and HCMV) in the presence of varied concentrations of the test compounds. Viral cytopathicity or plaque formation was recorded as soon as it reached completion in the control virus-infected cell cultures not treated with the test compounds.

[3] = test system: HEL cells; assay: Cytotoxicity, alteration of cell morphology in HEL cell culture; format: cell-based, human; details: minimum cytotoxic concentration causing microscopically detectable alteration of cell morphology
[4] = test system: VZV 07-1 (TK-); assay: microbe, parasite or virus in culture; format: cell-based, varicella zoster virus; details: Human alphaherpesvirus 3, HEL, read-out: Antiviral activity, EC50 VZV 07-1 (TK-)
[5] = test system: HCMV AD-169; assay: Anti-HCMV assay (AD-169 strain), inhibition of virus-induced cytopathicity or plaque formation in HEL fibroblasts; format: cell-based, human cytomegalovirus; details: HEL cell culture; for pEC50: Human betaherpesvirus 5, AD169, concentration reducing virus plaque formation by 50%, read-out: Antiviral activity, EC50 HCMV AD-169; for Inhibitory properties against HCMV (in words): AD-169 and Davis strains
Description: as §1

[6] = test system: HCMV Davis; assay: Anti-HCMV assay (Davis strain), inhibition of virus-induced cytopathicity or plaque formation in HEL fibroblasts; format: cell-based, human cytomegalovirus; details: Human betaherpesvirus 5; HEL cell culture; concentration reducing virus plaque formation by 50%; read-out: Antiviral activity, EC50 HCMV Davis
Description: as §1

Compound	CC50 [1]	pEC50 [2]	Cytotoxicity, Cell morphology MCC [3]	pEC50 [4]	pEC50 [5]	pEC50 [6]	melting point	Inhibitory properties against HCMV (in words) [5]
Nc1nc2c(ncn2COCCO)c(=O)[nH]1 [Acyclovir, reference compound]	> 100 µM	–	–	–	–	–	–	–
O=c1[nH]c(=O)n([C@H]2C[C@H](O)[C@@H](CO)O2)cc1/C=C/Br [Brivudine, reference compound]	> 100 µM	7.41	> 300 μM	5.22	–	–	–	–
Nc1ccn(C[C@@H](CO)OCP(=O)(O)O)c(=O)n1 [Cidofovir, reference compound]	129 µM	–	300 μM	–	6.42	6.42	–	–
O=c1c2ccccc2ncn1CCn1c(=O)ccn(CCCOc2ccc(Br)cc2)c1=O [Compound 9, 1-[3-(4-Bromophenoxy)propyl]-3-[2-(4-oxoquinazolin-4(3H)-yl)ethyl]uracil]	–	< 4.00	100 μM	< 4.00	< 4.00	< 4.00	178.5 to 179.5 °C	complete loss of inhibitory properties
O=c1c2ccccc2ncn1CCn1c(=O)ccn(CCCCOc2ccc(Br)cc2)c1=O [Compound 10, 1-[4-(4-Bromophenoxy)butyl]-3-[2-(4-oxoquinazolin-4(3H)-yl)ethyl]uracil]	–	< 4.70	20 μM	< 4.00	< 4.70	< 4.00	191 to 192 °C	complete loss of inhibitory properties
O=c1c2ccccc2ncn1CCn1c(=O)ccn(CCCCCOc2ccc(Br)cc2)c1=O [Compound 11, 1-[5-(4-Bromophenoxy)pentyl]-3-[2-(4-oxoquinazolin-4(3H)-yl)ethyl]uracil]	–	< 4.70	100 μM	< 4.00	< 4.70	< 4.70	174.5 to 176 °C	complete loss of inhibitory properties
O=c1c2ccccc2ncn1CCn1c(=O)ccn(CCCCCCOc2ccc(Br)cc2)c1=O [Compound 12, 1-[6-(4-Bromophenoxy)hexyl]-3-[2-(4-oxoquinazolin-4(3H)-yl)ethyl]uracil]	–	< 4.00	100 μM	< 4.00	< 4.00	< 4.70	178.5 to 179.5 °C	–
O=c1c2ccccc2ncn1CCn1c(=O)ccn(CCCCCCCCOc2ccc(Br)cc2)c1=O [Compound 13, 1-[8-(4-Bromophenoxy)octyl]-3-[2-(4-oxoquinazolin-4(3H)-yl)ethyl]uracil]	12.8 µM	< 4.00	> 100 μM	< 4.00	< 4.00	< 4.00	171.5 to 173 °C	–
O=c1c2ccccc2ncn1CCn1c(=O)ccn(CCCCCCCCCCOc2ccc(Br)cc2)c1=O [Compound 14, 1-[10-(4-Bromophenoxy)decyl]-3-[2-(4-oxoquinazolin-4(3H)-yl)ethyl]uracil]	> 100 µM	< 4.00	> 100 μM	< 4.00	< 4.00	< 4.00	161 to 162 °C	–
O=c1c2ccccc2ncn1CCn1c(=O)ccn(CCCCCCCCCCCCOc2ccc(Br)cc2)c1=O [Compound 15, 1-[12-(4-Bromophenoxy)dodecyl]-3-[2-(4-oxoquinazolin-4(3H)-yl)ethyl]uracil]	> 100 µM	< 4.00	≥ 100 μM	< 4.00	< 4.00	< 4.00	150 to 152 °C	–
O=c1c2ccc(Cl)cc2ncn1CCn1c(=O)ccn(CCCCCOc2ccc(Br)cc2)c1=O [Compound 16, 1-[5-(4-Bromophenoxy)pentyl]-3-[2-(7-chloro-4-oxoquinazolin-4(3H)-yl)ethyl]uracil]	–	< 4.70	20 μM	< 4.00	< 4.70	< 4.70	154 to 155 °C	complete loss of inhibitory properties
O=c1c2ccccc2ncn1CCCn1c(=O)ccn(CCCCCOc2ccc(Br)cc2)c1=O [Compound 17, 1-[5-(4-Bromophenoxy)pentyl]-3-[3-(4-oxoquinazolin-4(3H)-yl)propyl]uracil]	1.81 µM	4.54	20 μM	4.54	5.14	5.28	103.5 to 104.5 °C	–
Cc1ccc2ncn(CCn3c(=O)ccn(CCCCCOc4ccc(Br)cc4)c3=O)c(=O)c2c1 [Compound 18, 1-[5-(4-Bromophenoxy)pentyl]-3-[2-(6-methyl-4-oxoquinazolin-4(3H)-yl)ethyl]uracil]	> 100 µM	< 4.00	> 100 μM	< 4.00	< 4.00	< 4.00	180 to 181.5 °C	complete loss of inhibitory properties
Nc1nc(O)c2ncn(COC(CO)CO)c2n1 [Ganciclovir, reference compound]	196 µM	–	350 μM	–	5.62	5.70	–	–
